# Laboratory results reported in patent publication US20230061835A1, “11-OXO CUCURBITANES AND THEIR USE AS FLAVOR MODIFIERS” (Firmenich SA, priority 2020, published 2023).
# What was measured:
# [1] = Sensory testing by trained panel: saltiness taste; format: in vivo, human; settings: panel of 20 trained panelists; test compound at 40 ppm; score on scale −5 (strong masking) to 5 (strong enhancing), 0 = reference water solution with 0.25% NaCl and 0.05% MSG
# Description: (§1) Each of Compound 101, Compound 102, Compound 103, Compound 104, and Compound 105 was tested for taste properties, particularly umami and saltiness. A panel of twenty (20) trained panelists evaluated the samples of each test compound at 40 ppm for umami taste properties and saltiness taste properties, and scored the solutions on a scale ranging from −5 to 5 (with −5 denoting a strong masking effect, and 5 denoting a strong enhancing effect, and 0 representing the intensity of a reference water solution containing 0.25% sodium chloride (NaCl) and 0.05% monosodium glutamate (MSG), respectively).
# [2] = Sensory testing by trained panel: umami taste; format: in vivo, human; settings: panel of 20 trained panelists; test compound at 40 ppm; score on scale −5 (strong masking) to 5 (strong enhancing), 0 = reference water solution with 0.25% NaCl and 0.05% MSG
# Description: as §1
SMILES,Saltiness [1],Umami [2]
C[C@H](CC[C@@H](O[C@@H]1O[C@H](CO)[C@@H](O)[C@H](O)[C@H]1O)C(C)(C)O)[C@H]1CC[C@@]2(C)[C@@H]3CC=C4[C@@H](CC[C@H](O[C@@H]5O[C@H](CO)[C@@H](O)[C@H](O)[C@H]5O)C4(C)C)[C@]3(C)C(=O)C[C@]12C [Compound 105],0.20,0.10
C[C@H](CC[C@@H](O[C@@H]1O[C@H](CO[C@@H]2O[C@H](CO)[C@@H](O)[C@H](O)[C@H]2O)[C@@H](O)[C@H](O)[C@H]1O[C@@H]1O[C@H](CO)[C@@H](O)[C@H](O)[C@H]1O)C(C)(C)O)[C@H]1CC[C@@]2(C)[C@@H]3CC=C4[C@@H](CC[C@H](O[C@@H]5O[C@H](CO[C@@H]6O[C@H](CO)[C@@H](O)[C@H](O)[C@H]6O)[C@@H](O)[C@H](O)[C@H]5O[C@@H]5O[C@H](CO)[C@@H](O)[C@H](O)[C@H]5O)C4(C)C)[C@]3(C)C(=O)C[C@]12C [Compound 102],0.87,0.47
C[C@H](CC[C@@H](O[C@@H]1O[C@H](CO)[C@@H](O)[C@H](O)[C@H]1O[C@@H]1O[C@H](CO)[C@@H](O)[C@H](O)[C@H]1O)C(C)(C)O)[C@H]1CC[C@@]2(C)[C@@H]3CC=C4[C@@H](CC[C@H](O[C@@H]5O[C@H](CO)[C@@H](O)[C@H](O)[C@H]5O)C4(C)C)[C@]3(C)C(=O)C[C@]12C [Compound 104],−0.08,0.42
C[C@H](CC[C@@H](O[C@@H]1O[C@H](CO[C@@H]2O[C@H](CO)[C@@H](O)[C@H](O)[C@H]2O)[C@@H](O)[C@H](O)[C@H]1O[C@@H]1O[C@H](CO)[C@@H](O)[C@H](O)[C@H]1O)C(C)(C)O)[C@H]1CC[C@@]2(C)[C@@H]3CC=C4[C@@H](CC[C@H](O[C@@H]5O[C@H](CO[C@@H]6O[C@H](CO)[C@@H](O)[C@H](O)[C@H]6O)[C@@H](O)[C@H](O)[C@H]5O)C4(C)C)[C@]3(C)C(=O)C[C@]12C [Compound 101],0.19,0.88
C[C@H](CC[C@@H](O[C@@H]1O[C@H](CO)[C@@H](O)[C@H](O)[C@H]1O[C@@H]1O[C@H](CO)[C@@H](O)[C@H](O)[C@H]1O)C(C)(C)O)[C@H]1CC[C@@]2(C)[C@@H]3CC=C4[C@@H](CC[C@H](O[C@@H]5O[C@H](CO[C@@H]6O[C@H](CO)[C@@H](O)[C@H](O)[C@H]6O)[C@@H](O)[C@H](O)[C@H]5O)C4(C)C)[C@]3(C)C(=O)C[C@]12C [Compound 103],−0.02,0.69
